Assays:
[1] = tested on: MDA-MB-436 (BRCA1−) and MDA-MB-436 (BRCA1+) cells; test: In vitro cell survival assay (cell counting); type: cell-based, human; details: 1-50 μM F684, 5 days
Procedure: For this assay, 10,000 cells were seeded per well in a 24-well plate and incubated in a complete culture medium containing DMSO or the EXO1i of interest at 37 °C with 5% CO2. The medium was refreshed every 3 to 4 days by replacing it with a fresh medium containing DMSO or EXO1i. After 5 days, the cells were trypsinized, and the survival curve was generated by manual cell counting.

EXO1 = molecular target: T1, EXO1 (Homo sapiens, UniProt Q9UQ84); test: Thermal shift assay; type: binding; details: maximum shift in Tm of EXO1 vs DMSO, increasing inhibitor concentrations
T1 construct: made in house
T1 sequence (Q9UQ84 1-846): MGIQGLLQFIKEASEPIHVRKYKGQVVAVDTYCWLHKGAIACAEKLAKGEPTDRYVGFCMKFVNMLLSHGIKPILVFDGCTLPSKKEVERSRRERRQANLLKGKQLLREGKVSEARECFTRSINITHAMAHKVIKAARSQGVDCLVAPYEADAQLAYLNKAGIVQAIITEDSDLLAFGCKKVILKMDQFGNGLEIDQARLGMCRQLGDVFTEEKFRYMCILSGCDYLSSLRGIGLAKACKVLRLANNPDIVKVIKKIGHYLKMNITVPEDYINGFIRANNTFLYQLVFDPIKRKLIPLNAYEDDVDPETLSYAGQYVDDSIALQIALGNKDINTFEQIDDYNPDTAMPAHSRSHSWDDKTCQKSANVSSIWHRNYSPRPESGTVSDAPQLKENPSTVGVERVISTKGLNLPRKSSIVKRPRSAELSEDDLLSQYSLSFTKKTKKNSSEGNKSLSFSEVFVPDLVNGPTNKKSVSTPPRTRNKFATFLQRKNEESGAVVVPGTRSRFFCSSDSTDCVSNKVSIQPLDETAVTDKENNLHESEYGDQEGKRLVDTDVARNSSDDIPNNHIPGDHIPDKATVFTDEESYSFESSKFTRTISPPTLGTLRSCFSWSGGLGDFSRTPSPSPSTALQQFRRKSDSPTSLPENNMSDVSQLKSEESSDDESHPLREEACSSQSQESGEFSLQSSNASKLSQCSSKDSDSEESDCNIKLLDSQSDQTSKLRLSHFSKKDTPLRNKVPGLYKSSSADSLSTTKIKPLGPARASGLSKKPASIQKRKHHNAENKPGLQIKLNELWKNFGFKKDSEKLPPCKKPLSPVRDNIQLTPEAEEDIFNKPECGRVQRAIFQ
Procedure: To assess for changes in the thermal stability of EXO1 protein in response to treatment with candidate small molecule inhibitors or DMSO (vehicle control), the thermal shift assay (Applied Biosystems Protein Thermal Shift Dye Kit, Cat. #4461146) was utilized. The protein melt reaction mix consisted of freshly prepared 10× thermal shift dye, purified EXO1 enzyme (1 μg/uL), thermal shift buffer, DMSO or inhibitors, and sterilized Milli-Q water. A drug-free supermix was premade and dispensed in 96-well PCR plates followed by the addition of DMSO or inhibitors with increasing concentration. The reaction plate was heated from 10 to 98 °C at a rate of 0.5° per 10 s cycle, and the fluorescence intensity of individual wells was measured at 490/530 nm using a BioRad CFX96 Touch Real-Time PCR System. The fluorescence measurements of three technical replicates per treatment condition were then averaged to calculate melting temperature shift (ΔT m) as a readout for compound binding affinity.

DU145 (B3) = test: Cell line drug profiling, CellTiter Glo; type: cell-based; details: Homo sapiens, DU-145, Prostate, 72 h
Procedure: (§1) We tested the cytotoxicity of representative compounds from the seven EXO1i scaffolds against a subset of the NCI-60 cell line panel along with three additional pancreatic cell lines (FG, AsPC1, and CaPan2). In general, cells were seeded in 384-well tissue culture-treated plates overnight and treated with various concentrations of each hit compound (a serial 3-fold dilution from 50 μM for all tested hits). Each concentration was performed in duplicate. Cell viability was then measured by CellTiter Glo (Promega) after 72 h of treatment.

DU145 = test: Cell line drug profiling, CellTiter Glo; type: cell-based; details: Homo sapiens, DU-145; DU145, Prostate, 72 h
Procedure: as §1

H23 = test: Cell line drug profiling, CellTiter Glo; type: cell-based; details: Homo sapiens, NCI-H23; H23, Lung, 72 h
Procedure: as §1

IGR-OV1 = test: Cell line drug profiling, CellTiter Glo; type: cell-based; details: Homo sapiens, IGROV-1; IGR-OV1, Ovarian, 72 h
Procedure: as §1

NCI/ADR-RES = test: Cell line drug profiling, CellTiter Glo; type: cell-based; details: Homo sapiens, Ovarian, 72 h
Procedure: as §1

OVCAR-4 = test: Cell line drug profiling, CellTiter Glo; type: cell-based; details: Homo sapiens; OVCAR-4, Ovarian, 72 h
Procedure: as §1

OVCAR-5 = test: Cell line drug profiling, CellTiter Glo; type: cell-based; details: Homo sapiens; OVCAR-5, Ovarian, 72 h
Procedure: as §1

OVCAR-8 = test: Cell line drug profiling, CellTiter Glo; type: cell-based; details: Homo sapiens; OVCAR-8, Ovarian, 72 h
Procedure: as §1

PC3 = test: Cell line drug profiling, CellTiter Glo; type: cell-based; details: Homo sapiens, PC-3; PC3, Prostate, 72 h
Procedure: as §1

SKOV-3 = test: Cell line drug profiling, CellTiter Glo; type: cell-based; details: Homo sapiens, SK-OV-3; SKOV-3, Ovarian, 72 h
Procedure: as §1

SNB-19 = test: Cell line drug profiling, CellTiter Glo; type: cell-based; details: Homo sapiens; SNB-19, Central Nervous System, 72 h
Procedure: as §1

T-47D = test: Cell line drug profiling, CellTiter Glo; type: cell-based; details: Homo sapiens, T47D, Breast, 72 h
Procedure: as §1

U251 = test: Cell line drug profiling, CellTiter Glo; type: cell-based; details: Homo sapiens, U-251; U251, Central Nervous System, 72 h
Procedure: as §1

UACC-257 = test: Cell line drug profiling, CellTiter Glo; type: cell-based; details: Homo sapiens; UACC-257, Melanoma, 72 h
Procedure: as §1

Structure (SMILES)	cell killing (survival), BRCA1– vs BRCA1+ cells [1]	ΔT m (EXO1)	IC50 (DU145 (B3))	IC50 (DU145)	IC50 (H23)	IC50 (IGR-OV1)	IC50 (NCI/ADR-RES)	IC50 (OVCAR-4)	IC50 (OVCAR-5)	IC50 (OVCAR-8)	IC50 (PC3)	IC50 (SKOV-3)	IC50 (SNB-19)	IC50 (T-47D)	IC50 (U251)	IC50 (UACC-257)
Cc1cccc(N2CCN(c3ccc(NS(=O)(=O)c4ccccc4)c(C(=O)O)c3)CC2)c1C [F684]	more effective in killing BRCA1– cells compared to BRCA1+ cells	–	–	–	–	–	–	–	–	–	–	–	–	–	–	–
COC(=O)c1nc(-c2ccc(OC)cc2)nc(O)c1O [C200]	–	~1 °C	> 50 µM	49.4 µM	> 50 µM	> 50 µM	> 50 µM	> 50 µM	> 50 µM	> 50 µM	> 50 µM	> 50 µM	> 50 µM	> 50 µM	> 50 µM	> 50 µM

Reference: PMC12186255, “Discovery and Characterization of Small Molecule Inhibitors Targeting Exonuclease 1 for Homologous Recombination-Deficient Cancer Therapy” (ACS Chemical Biology, 2025)
